Measured values published in the supplement of paper PMC12076712.

Legend:
Experiment in all cases: pIC50, kinobeads binding competition
[1] = biological target: DDR1 (UniProt Q08345)
How it was run: (§1)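 Either living Jurkat cells (60 min at 37 °C, then lysis) or lysates (60 min at 4 °C) were treated with nine compound concentrations from a top of 30 μM, in 1:4 steps for cells and 1:5 steps for lysates. The lysates were from Jurkat cells or a 1:1:1:1 mix of HEK293, K-562, HepG2 and placenta. Kinobeads-bound proteins were digested and quantified by TMT10 LC-MS/MS. pIC50 was calculated by logistic dose-response fitting (R drc package) of fold changes relative to vehicle, in biological duplicates.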

[2] = biological target: EPHA5 (UniProt P54756); details: cell material: Lysate mix
How it was run: as §1

[3] = biological target: T1, ICK (UniProt Q9UPZ9)
T1 sequence (whole entry): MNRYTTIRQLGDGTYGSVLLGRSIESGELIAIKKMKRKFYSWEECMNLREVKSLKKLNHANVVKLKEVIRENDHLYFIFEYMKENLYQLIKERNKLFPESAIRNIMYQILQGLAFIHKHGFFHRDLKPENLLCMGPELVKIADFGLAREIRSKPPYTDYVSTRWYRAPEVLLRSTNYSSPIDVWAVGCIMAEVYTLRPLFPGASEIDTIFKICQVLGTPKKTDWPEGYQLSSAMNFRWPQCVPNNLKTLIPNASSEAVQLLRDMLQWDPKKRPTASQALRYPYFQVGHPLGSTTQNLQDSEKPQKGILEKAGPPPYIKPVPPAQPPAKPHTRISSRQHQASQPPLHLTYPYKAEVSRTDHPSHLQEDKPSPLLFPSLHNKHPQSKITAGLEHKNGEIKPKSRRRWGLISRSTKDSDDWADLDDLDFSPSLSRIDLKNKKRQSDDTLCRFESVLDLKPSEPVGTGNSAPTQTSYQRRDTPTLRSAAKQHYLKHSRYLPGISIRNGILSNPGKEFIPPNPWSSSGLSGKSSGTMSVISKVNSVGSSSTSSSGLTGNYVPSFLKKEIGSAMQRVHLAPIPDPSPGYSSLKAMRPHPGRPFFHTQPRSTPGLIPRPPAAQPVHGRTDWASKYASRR
How it was run: as §1

[4] = biological target: IRAK1 (UniProt P51617)
How it was run: as §1

[5] = biological target: T2, JAK3 (UniProt P52333)
T2 sequence (whole entry): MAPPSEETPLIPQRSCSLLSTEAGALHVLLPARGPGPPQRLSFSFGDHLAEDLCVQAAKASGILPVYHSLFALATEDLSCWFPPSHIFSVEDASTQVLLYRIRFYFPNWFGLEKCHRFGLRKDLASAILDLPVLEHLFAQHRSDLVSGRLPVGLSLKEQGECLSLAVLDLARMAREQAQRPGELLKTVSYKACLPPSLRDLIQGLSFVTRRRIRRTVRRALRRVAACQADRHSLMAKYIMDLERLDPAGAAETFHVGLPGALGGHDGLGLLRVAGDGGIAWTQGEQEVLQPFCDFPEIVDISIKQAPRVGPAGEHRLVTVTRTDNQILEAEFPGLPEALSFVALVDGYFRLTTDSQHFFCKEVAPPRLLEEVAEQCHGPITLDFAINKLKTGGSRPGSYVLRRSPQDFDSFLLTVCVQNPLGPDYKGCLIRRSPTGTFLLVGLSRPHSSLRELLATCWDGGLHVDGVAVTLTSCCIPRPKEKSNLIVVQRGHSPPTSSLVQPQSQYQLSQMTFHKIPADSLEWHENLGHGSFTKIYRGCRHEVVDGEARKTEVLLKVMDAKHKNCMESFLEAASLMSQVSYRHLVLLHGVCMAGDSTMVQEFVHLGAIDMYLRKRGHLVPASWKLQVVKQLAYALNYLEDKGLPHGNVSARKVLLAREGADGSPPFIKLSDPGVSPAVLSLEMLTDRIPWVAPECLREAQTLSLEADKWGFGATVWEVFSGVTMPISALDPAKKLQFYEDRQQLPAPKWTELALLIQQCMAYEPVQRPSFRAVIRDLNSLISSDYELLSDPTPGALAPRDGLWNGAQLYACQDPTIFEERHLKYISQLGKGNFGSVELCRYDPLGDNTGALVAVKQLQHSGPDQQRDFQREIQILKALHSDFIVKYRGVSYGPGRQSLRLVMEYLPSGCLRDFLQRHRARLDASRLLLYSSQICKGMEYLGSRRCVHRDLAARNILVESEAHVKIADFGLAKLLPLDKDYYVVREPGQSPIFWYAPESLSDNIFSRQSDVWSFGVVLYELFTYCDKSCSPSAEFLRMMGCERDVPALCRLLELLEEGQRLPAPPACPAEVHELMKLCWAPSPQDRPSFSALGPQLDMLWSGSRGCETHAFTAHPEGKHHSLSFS
How it was run: as §1

[6] = biological target: T3, UniProt O15530
T3 sequence (whole entry): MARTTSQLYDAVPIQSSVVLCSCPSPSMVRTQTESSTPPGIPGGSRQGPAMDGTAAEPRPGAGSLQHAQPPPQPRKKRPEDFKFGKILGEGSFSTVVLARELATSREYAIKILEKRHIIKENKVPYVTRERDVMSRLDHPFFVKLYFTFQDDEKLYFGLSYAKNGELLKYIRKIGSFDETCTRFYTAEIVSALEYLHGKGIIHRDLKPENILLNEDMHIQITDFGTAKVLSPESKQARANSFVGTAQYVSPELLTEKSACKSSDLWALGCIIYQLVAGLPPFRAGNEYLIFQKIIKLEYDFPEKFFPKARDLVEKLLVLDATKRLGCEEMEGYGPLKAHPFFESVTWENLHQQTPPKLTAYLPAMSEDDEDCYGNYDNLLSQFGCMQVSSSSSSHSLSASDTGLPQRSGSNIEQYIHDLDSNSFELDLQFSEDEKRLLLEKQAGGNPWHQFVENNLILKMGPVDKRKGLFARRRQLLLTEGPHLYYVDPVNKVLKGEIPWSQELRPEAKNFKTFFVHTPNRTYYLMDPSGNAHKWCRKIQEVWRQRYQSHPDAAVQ
How it was run: as §1

[7] = biological target: UniProt Q16584
How it was run: as §1

[8] = biological target: UniProt Q8NI60
How it was run: as §1

Sequence of IRAK1 (P51617 whole entry, looked up): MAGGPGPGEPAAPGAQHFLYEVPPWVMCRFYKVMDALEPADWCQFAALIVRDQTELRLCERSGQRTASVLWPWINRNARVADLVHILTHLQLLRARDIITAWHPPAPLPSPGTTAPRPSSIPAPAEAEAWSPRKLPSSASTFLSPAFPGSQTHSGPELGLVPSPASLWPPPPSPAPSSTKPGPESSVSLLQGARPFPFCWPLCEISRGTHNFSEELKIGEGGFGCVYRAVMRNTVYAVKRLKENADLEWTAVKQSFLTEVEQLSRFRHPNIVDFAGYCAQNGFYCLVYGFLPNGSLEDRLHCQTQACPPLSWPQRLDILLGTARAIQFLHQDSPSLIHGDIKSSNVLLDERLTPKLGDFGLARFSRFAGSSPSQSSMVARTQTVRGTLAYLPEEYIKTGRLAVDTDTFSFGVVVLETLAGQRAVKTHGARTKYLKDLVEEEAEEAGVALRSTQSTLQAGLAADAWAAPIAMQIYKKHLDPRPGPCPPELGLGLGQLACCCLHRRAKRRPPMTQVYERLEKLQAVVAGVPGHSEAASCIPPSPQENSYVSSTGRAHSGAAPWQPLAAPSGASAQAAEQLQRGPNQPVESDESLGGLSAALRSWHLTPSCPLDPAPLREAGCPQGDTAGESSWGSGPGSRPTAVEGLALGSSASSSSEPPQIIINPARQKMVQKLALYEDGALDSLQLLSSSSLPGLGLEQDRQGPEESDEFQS
Sequence of UniProt Q8NI60 (Q8NI60 whole entry, looked up): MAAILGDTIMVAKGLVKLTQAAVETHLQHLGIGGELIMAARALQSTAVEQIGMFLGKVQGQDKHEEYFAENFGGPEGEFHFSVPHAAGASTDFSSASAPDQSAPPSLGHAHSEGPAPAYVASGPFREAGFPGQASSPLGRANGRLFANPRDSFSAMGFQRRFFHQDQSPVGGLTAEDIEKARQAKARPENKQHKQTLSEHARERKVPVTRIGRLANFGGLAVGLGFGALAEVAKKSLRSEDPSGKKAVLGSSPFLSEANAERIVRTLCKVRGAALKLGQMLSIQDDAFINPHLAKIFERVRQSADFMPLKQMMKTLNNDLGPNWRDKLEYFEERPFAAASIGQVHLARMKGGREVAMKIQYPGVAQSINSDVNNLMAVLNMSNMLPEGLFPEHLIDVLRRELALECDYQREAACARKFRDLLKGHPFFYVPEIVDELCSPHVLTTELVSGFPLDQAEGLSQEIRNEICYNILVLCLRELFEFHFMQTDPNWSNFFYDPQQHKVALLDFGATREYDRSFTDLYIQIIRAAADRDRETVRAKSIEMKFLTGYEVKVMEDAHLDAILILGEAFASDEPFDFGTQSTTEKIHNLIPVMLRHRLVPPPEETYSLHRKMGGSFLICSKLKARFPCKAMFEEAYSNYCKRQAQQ
Sequence of UniProt Q16584 (Q16584 whole entry, looked up): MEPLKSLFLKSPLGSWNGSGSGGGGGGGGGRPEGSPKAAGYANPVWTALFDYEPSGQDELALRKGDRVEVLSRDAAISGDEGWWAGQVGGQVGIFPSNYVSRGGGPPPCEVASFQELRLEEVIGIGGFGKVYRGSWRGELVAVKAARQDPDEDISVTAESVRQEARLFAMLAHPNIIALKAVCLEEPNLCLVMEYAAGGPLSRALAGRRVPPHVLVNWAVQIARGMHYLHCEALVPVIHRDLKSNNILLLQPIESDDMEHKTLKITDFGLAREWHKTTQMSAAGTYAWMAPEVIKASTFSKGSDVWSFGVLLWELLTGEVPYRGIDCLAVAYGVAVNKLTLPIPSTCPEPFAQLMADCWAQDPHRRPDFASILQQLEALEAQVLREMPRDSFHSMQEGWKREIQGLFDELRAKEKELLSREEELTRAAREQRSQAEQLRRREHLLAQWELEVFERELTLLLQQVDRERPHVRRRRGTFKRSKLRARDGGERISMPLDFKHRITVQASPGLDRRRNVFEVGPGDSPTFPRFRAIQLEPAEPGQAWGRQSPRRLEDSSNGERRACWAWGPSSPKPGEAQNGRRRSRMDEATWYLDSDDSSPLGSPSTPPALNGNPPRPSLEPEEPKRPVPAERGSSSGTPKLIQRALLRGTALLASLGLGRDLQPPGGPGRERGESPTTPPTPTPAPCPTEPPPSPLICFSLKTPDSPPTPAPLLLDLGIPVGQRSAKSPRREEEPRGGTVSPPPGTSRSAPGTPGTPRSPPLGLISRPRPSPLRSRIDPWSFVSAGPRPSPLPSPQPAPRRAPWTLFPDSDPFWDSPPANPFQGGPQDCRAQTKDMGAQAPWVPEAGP
Sequence of DDR1 (Q08345 whole entry): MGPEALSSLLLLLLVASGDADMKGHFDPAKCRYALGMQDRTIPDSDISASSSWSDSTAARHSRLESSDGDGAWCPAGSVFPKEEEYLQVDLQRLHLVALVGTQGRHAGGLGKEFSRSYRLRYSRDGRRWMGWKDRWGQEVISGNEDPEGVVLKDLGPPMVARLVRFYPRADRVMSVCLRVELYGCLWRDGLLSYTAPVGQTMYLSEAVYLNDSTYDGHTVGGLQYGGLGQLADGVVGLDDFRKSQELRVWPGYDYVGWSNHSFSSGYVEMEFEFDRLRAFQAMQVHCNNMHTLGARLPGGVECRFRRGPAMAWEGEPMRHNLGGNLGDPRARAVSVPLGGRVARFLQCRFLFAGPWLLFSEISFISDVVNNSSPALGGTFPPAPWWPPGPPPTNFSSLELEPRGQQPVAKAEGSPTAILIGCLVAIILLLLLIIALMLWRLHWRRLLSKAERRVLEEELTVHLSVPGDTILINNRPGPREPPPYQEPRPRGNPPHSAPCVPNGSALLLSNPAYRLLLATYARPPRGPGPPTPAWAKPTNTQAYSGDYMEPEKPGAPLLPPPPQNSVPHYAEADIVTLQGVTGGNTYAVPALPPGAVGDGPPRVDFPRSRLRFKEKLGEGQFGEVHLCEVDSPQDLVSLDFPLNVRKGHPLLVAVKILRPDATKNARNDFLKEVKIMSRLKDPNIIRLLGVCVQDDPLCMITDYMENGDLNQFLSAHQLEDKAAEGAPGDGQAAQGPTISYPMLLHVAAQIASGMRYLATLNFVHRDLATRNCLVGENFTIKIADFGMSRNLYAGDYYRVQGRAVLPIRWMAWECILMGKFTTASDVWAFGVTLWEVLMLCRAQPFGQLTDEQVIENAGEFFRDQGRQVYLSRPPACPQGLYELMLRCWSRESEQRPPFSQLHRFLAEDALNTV
Sequence of EPHA5 (P54756 whole entry): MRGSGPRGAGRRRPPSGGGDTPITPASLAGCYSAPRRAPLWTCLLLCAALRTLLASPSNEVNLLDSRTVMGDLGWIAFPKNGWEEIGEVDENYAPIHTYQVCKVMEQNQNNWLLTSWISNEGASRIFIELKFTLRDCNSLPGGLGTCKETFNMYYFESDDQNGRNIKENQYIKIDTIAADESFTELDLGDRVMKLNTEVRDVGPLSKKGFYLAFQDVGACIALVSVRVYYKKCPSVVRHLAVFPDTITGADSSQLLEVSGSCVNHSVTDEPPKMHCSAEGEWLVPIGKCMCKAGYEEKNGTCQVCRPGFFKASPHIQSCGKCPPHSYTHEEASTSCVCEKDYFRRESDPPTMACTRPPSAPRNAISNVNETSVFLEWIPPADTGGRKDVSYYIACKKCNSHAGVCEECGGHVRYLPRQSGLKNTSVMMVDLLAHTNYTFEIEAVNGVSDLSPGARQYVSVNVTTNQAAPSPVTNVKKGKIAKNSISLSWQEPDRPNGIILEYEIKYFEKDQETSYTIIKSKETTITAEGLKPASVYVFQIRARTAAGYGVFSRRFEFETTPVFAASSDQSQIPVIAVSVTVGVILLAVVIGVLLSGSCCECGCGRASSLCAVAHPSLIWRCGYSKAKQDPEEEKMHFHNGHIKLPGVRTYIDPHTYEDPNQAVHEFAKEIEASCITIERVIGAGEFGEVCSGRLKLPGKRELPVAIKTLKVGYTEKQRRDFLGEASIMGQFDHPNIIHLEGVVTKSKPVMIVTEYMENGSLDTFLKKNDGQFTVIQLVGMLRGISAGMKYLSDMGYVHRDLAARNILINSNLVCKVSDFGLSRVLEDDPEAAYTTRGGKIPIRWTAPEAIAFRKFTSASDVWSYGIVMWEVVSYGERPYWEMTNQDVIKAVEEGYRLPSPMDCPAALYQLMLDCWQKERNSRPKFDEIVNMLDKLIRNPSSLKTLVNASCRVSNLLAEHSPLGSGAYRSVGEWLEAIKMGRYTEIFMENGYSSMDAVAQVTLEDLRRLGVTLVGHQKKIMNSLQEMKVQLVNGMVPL

| SMILES | pIC50 ([1]; cell material: Lysate mix) | pIC50 [2] | pIC50 ([3]; cell material: Lysate mix) | pIC50 ([4]; cell material: Lysate mix) | pIC50 ([5]; cell material: Lysate mix) | pIC50 ([6]; cell material: Lysate mix) | pIC50 ([7]; cell material: Lysate mix) | pIC50 ([8]; cell material: Lysate mix) | pIC50 ([1]; cell material: Jurkat cells) | pIC50 ([1]; cell material: Jurkat lysate) | pIC50 ([3]; cell material: Jurkat cells) | pIC50 ([3]; cell material: Jurkat lysate) | pIC50 ([4]; cell material: Jurkat cells) | pIC50 ([4]; cell material: Jurkat lysate) | pIC50 ([5]; cell material: Jurkat cells) | pIC50 ([5]; cell material: Jurkat lysate) | pIC50 ([6]; cell material: Jurkat lysate) | pIC50 ([7]; cell material: Jurkat cells) | pIC50 ([7]; cell material: Jurkat lysate) | pIC50 ([8]; cell material: Jurkat cells) | pIC50 ([8]; cell material: Jurkat lysate) |
| --- | --- | --- | --- | --- | --- | --- | --- | --- | --- | --- | --- | --- | --- | --- | --- | --- | --- | --- | --- | --- | --- |
| C#CCNC(=O)c1cc(Nc2cc(C)[nH]n2)nc(N2CCN(Cc3ccc(S(=O)(=O)F)cc3)CC2)n1 | < 4.52 | < 4.52 | 5.43 | 5.11 | 5.7 | < 4.52 | < 4.52 | < 4.52 |  |  |  |  |  |  |  |  |  |  |  |  |  |
| O=C(NCCNC(=O)c1cc(Nc2cc(C3CC3)[nH]n2)nc(N2CCN(Cc3ccc(S(=O)(=O)F)cc3)CC2)n1)OC1CC/C=C/CCC1 (stereo not drawn) | < 4.52 | < 4.52 | 5.38 |  | < 4.52 | < 4.52 | < 4.52 | < 4.52 | < 4.52 | < 4.52 | 6.56 | 5.31 | 5.53 | < 4.52 | 5.39 | < 4.52 | < 4.52 | 5.96 | < 4.52 | < 4.52 | < 4.52 |
